Test system: Genes belonging to other category
Experiment: DNA chip mRNA expression in yeast, genes belonging to other category (Table 9)
Format: cell-based, Saccharomyces cerevisiae S288C
Experimental: Yeast (Saccharomyces cerevisiae S288C (α SUC2mal mel gap2 CUP1)) were incubated at 25° C. on YPD medium (yeast extract 1%, polypepton 2%, glucose 2%). One of toxic chemical substances was added to the cells at logarithmic growth phase, and the cells were further incubated for two hours. Cells were cultured without any chemical substance in the same condition, and were used as control. Concentrations of the chemical substances were defined to inhibit the growth of the yeast but not lead to death.
After completion of the incubation, the culture was centrifuged to collect the cells. To the cells, sodium acetate buffer (50 mM sodium acetate, 10 mM EDTA, 1% SDS) was added, and the mixture was shaken at 65° C. for five minutes, followed by returning to room temperature, and obtaining the supernatant, of which the procedures were repeated two times. To the supernatant, ½ amount of a solution of phenol/chloroform was added, and the mixture was centrifuged to give a supernatant, which was added with an equal amount of chloroform, and the mixture was centrifuged to give a supernatant. To the supernatant, an equal amount of isopropanol containing 0.3 M sodium acetate was added, and the mixture was allowed to stand at room temperature for 30 minutes, after which the mixture was centrifuged to give a sediment of the whole RNAs. Seventy % ethanol was added to the sediment, and the mixture was again centrifuged to give a sediment, which was then dried and dissolved in water. mRNA was isolated from the whole RNAs as followings. In view of the fact that a poly A chain is attached to the 3′ terminus of mRNA, a polynucleotide having a poly T structure which was immobilized on the surface of latex beads was used to trap the mRNA, and then the mRNA was washed and eluted with spine column (Oligotex-dT30<Super>mRNA Purification Kit, Takara). Reverse transcription of the mRNA was conducted with a reverse transcriptase (Super Script II Reverse Transcriptase; catalogue No. 18064-014, GibcoBRL) using fluorescence-labeled nucleotides to give cDNAs that were introduced with Cy3-dUTP or Cy5-dUTP during the reverse transcription.
The labeled cDNAs were dissolved in TE buffer (10mM Tris-HCl/1 mM EDTA, pH8.0), and the solution was dropped on the DNA chip containing the whole genes of yeast (DNA Chip Research Inc. Japan) so that the cDNAs were hybridized on the DNA chip at 65° C. for over 12 hours. The fluoresces intensity of the DNA chip was read with a scanner, and the ratio relative to the fluorescence intensity resulting from the absence of chemical substance was estimated as the following, which is shown in Tables 1 to 9: […]

## [Cl][Cd][Cl] [(2), CdCl2]
Yeast gene YAR010C
  The level of expressed mRNA in the presence of chemical substance/The level of expressed mRNA in the absence of chemical substance: 1.2
Yeast gene YBL005W-A
  The level of expressed mRNA in the presence of chemical substance/The level of expressed mRNA in the absence of chemical substance: 0.9
Yeast gene YBL041W
  The level of expressed mRNA in the presence of chemical substance/The level of expressed mRNA in the absence of chemical substance: 1.4
Yeast gene YBL043W
  The level of expressed mRNA in the presence of chemical substance/The level of expressed mRNA in the absence of chemical substance: 1.2
Yeast gene YBL078C
  The level of expressed mRNA in the presence of chemical substance/The level of expressed mRNA in the absence of chemical substance: 2.7
Yeast gene YBR214W
  The level of expressed mRNA in the presence of chemical substance/The level of expressed mRNA in the absence of chemical substance: 2.1
Yeast gene YCL020W
  The level of expressed mRNA in the presence of chemical substance/The level of expressed mRNA in the absence of chemical substance: 2.5
Yeast gene YCL027W
  The level of expressed mRNA in the presence of chemical substance/The level of expressed mRNA in the absence of chemical substance: 2.0
Yeast gene YCR004C
  The level of expressed mRNA in the presence of chemical substance/The level of expressed mRNA in the absence of chemical substance: 1.0
Yeast gene YCR071C
  The level of expressed mRNA in the presence of chemical substance/The level of expressed mRNA in the absence of chemical substance: 0.7
Yeast gene YCR088W
  The level of expressed mRNA in the presence of chemical substance/The level of expressed mRNA in the absence of chemical substance: 1.1
Yeast gene YDL008W
  The level of expressed mRNA in the presence of chemical substance/The level of expressed mRNA in the absence of chemical substance: 1.0
Yeast gene YDL238C
  The level of expressed mRNA in the presence of chemical substance/The level of expressed mRNA in the absence of chemical substance: 1.0
Yeast gene YDR055W
  The level of expressed mRNA in the presence of chemical substance/The level of expressed mRNA in the absence of chemical substance: 2.1
Yeast gene YDR084C
  The level of expressed mRNA in the presence of chemical substance/The level of expressed mRNA in the absence of chemical substance: 0.9
Yeast gene YDR085C
  The level of expressed mRNA in the presence of chemical substance/The level of expressed mRNA in the absence of chemical substance: 1.8
Yeast gene YDR104C
  The level of expressed mRNA in the presence of chemical substance/The level of expressed mRNA in the absence of chemical substance: 1.1
Yeast gene YDR115W
  The level of expressed mRNA in the presence of chemical substance/The level of expressed mRNA in the absence of chemical substance: 0.9
Yeast gene YDR259C
  The level of expressed mRNA in the presence of chemical substance/The level of expressed mRNA in the absence of chemical substance: 1.0
Yeast gene YDR315C
  The level of expressed mRNA in the presence of chemical substance/The level of expressed mRNA in the absence of chemical substance: 1.4
Yeast gene YDR358W
  The level of expressed mRNA in the presence of chemical substance/The level of expressed mRNA in the absence of chemical substance: 1.1
Yeast gene YDR388W
  The level of expressed mRNA in the presence of chemical substance/The level of expressed mRNA in the absence of chemical substance: 0.7
Yeast gene YDR432W
  The level of expressed mRNA in the presence of chemical substance/The level of expressed mRNA in the absence of chemical substance: 0.8
Yeast gene YDR481C
  The level of expressed mRNA in the presence of chemical substance/The level of expressed mRNA in the absence of chemical substance: 2.3
Yeast gene YDR510W
  The level of expressed mRNA in the presence of chemical substance/The level of expressed mRNA in the absence of chemical substance: 1.3
Yeast gene YEL042W
  The level of expressed mRNA in the presence of chemical substance/The level of expressed mRNA in the absence of chemical substance: 0.9
Yeast gene YEL066W
  The level of expressed mRNA in the presence of chemical substance/The level of expressed mRNA in the absence of chemical substance: 2.9
Yeast gene YER039C
  The level of expressed mRNA in the presence of chemical substance/The level of expressed mRNA in the absence of chemical substance: 1.2
Yeast gene YER107C
  The level of expressed mRNA in the presence of chemical substance/The level of expressed mRNA in the absence of chemical substance: 0.5
Yeast gene YER130C
  The level of expressed mRNA in the presence of chemical substance/The level of expressed mRNA in the absence of chemical substance: 1.6
Yeast gene YFL022C
  The level of expressed mRNA in the presence of chemical substance/The level of expressed mRNA in the absence of chemical substance: 0.9
Yeast gene YFL028C
  The level of expressed mRNA in the presence of chemical substance/The level of expressed mRNA in the absence of chemical substance: 1.1
Yeast gene YFL043C
  The level of expressed mRNA in the presence of chemical substance/The level of expressed mRNA in the absence of chemical substance: 1.2
Yeast gene YGL158W
  The level of expressed mRNA in the presence of chemical substance/The level of expressed mRNA in the absence of chemical substance: 2.8
Yeast gene YGL229C
  The level of expressed mRNA in the presence of chemical substance/The level of expressed mRNA in the absence of chemical substance: 0.7
Yeast gene YGR136W
  The level of expressed mRNA in the presence of chemical substance/The level of expressed mRNA in the absence of chemical substance: 1.2
Yeast gene YGR189C
  The level of expressed mRNA in the presence of chemical substance/The level of expressed mRNA in the absence of chemical substance: 0.9
Yeast gene YGR213C
  The level of expressed mRNA in the presence of chemical substance/The level of expressed mRNA in the absence of chemical substance: 2.9
Yeast gene YGR257C
  The level of expressed mRNA in the presence of chemical substance/The level of expressed mRNA in the absence of chemical substance: 0.8
Yeast gene YHR004C
  The level of expressed mRNA in the presence of chemical substance/The level of expressed mRNA in the absence of chemical substance: 1.1
Yeast gene YHR071W
  The level of expressed mRNA in the presence of chemical substance/The level of expressed mRNA in the absence of chemical substance: 1.1
Yeast gene YHR139C
  The level of expressed mRNA in the presence of chemical substance/The level of expressed mRNA in the absence of chemical substance: 4.6
Yeast gene YHR142W
  The level of expressed mRNA in the presence of chemical substance/The level of expressed mRNA in the absence of chemical substance: 0.8
Yeast gene YIL123W
  The level of expressed mRNA in the presence of chemical substance/The level of expressed mRNA in the absence of chemical substance: 0.5
Yeast gene YIL140W
  The level of expressed mRNA in the presence of chemical substance/The level of expressed mRNA in the absence of chemical substance: 1.0
Yeast gene YJL073W
  The level of expressed mRNA in the presence of chemical substance/The level of expressed mRNA in the absence of chemical substance: 0.8
Yeast gene YJL089W
  The level of expressed mRNA in the presence of chemical substance/The level of expressed mRNA in the absence of chemical substance: 1.5
Yeast gene YJL116C
  The level of expressed mRNA in the presence of chemical substance/The level of expressed mRNA in the absence of chemical substance: 1.8
Yeast gene YJR004C
  The level of expressed mRNA in the presence of chemical substance/The level of expressed mRNA in the absence of chemical substance: 0.8
Yeast gene YJR086W
  The level of expressed mRNA in the presence of chemical substance/The level of expressed mRNA in the absence of chemical substance: 1.1

Source: US8192962B2, “Processes for detecting toxic substances” (Daikin Industries, Ltd., priority 2001, dated 2012)
